Laboratory results as given in patent publication US11821005B2, “Umbilical cord mesenchymal stem cells (MSCs) and culture method and application thereof” (FOSHAN JINGZHUN JIEN HEALTH MANAGEMENT CONSULTING CO., LTD., priority 2019, dated 2023).
Structures can show the parent of a compound that is named as a salt.

System: umbilical cord MSCs (P3-P5 cells)
Test: agglomeration of cultured MSCs after adding ligustrazine hydrochloride and/or Shenmai injection (cell graphs)
Format: cell-based, human
Settings: Day 1 after addition, ligustrazine hydrochloride 40-80 mg/L, Shenmai injection 0.5% by volume, FIG. 1 to FIG. 9
Experimental: 2.9 A ligustrazine hydrochloride (GYZZ H20041175 injection of Harbin Medisan Pharmaceutical Co., Ltd., which follows the Second Supplement to the National Standard and can be directly injected into human bodies) and a Shenmai injection (GYZZ Z63021721 of Yunnan Phytopharmaceutical Co., Ltd., which follows the National Drug Standard (Amendment) WS3-B-3428-98-2010 and can be directly injected into human bodies) were added to P3-P5 cells respectively. The concentration of the ligustrazine hydrochloride was 40-80 mg/L and the Shenmai injection was 0.5% by volume. After culture for 24 hours, change the medium and culture for another one week, the cells grown to a fusion degree of 80-90% were collected and digested for tests. The products obtained in the steps are biodetected to eliminate etiological contamination.
The cells were divided into three groups: a. only the Shenmai injection was added; b. only the ligustrazine hydrochloride was added; and c. both the Shenmai injection and the ligustrazine hydrochloride were added for comparison.

Cc1nc(C)c(C)nc1C [ligustrazine hydrochloride] was tested, and the “agglomeration of the cells” value was “improved to some extent”.
